The values below come from patent US8076144B2, “Protocol for risk stratification of ischemic events and optimized individualized treatment” (Cora Healthcare, Inc., priority 1999, dated 2011).

The test system of the experiment is whole blood clot formation. The experiment can be described thus: Ecarin-activated TEG hemostasis analysis of recalcified sodium-citrated samples taken before and after in vivo anticoagulation therapy. The following applies: 14b. The arrangement: species or system human. From the text:
One exemplary protocol utilizes a sample, e.g., sample 13, that is obtained from a subject prior to administration of the anticoagulation therapy. Another sample is obtained at a first time period following administration of an anticoagulation therapy such as a direct thrombin inhibitor therapy like bivalirudin, heparin or warfarin. Each sample may be obtained into sodium citrate.
The sodium-citrated samples are recalcified, and an additional reagent is provided such as a prothrombin activator such as ecarin. The hemostasis analyzer 10 is used to measure the time to initial clot formation, R. FIG. 13 illustrates data for a sample of subjects showing time to initial clot formation R before in vivo administration of the anticoagulation therapy and after in vivo administration of the anticoagulation therapy. FIGS. 14a and 14b illustrate tracings and, respectively, showing a typical set of hemostasis parameter data before in vivo administration of the anticoagulation therapy and after in vivo administration of the anticoagulation therapy. […] Importantly, there exists correlation between the delay in initial clot formation and the dosing of the anticoagulation therapy. […]

Regarding bivalirudin, under “samples from subjects before vs after in vivo administration, recalcified citrated blood with ecarin, FIGS. 13, 14a”, the “delay in onset of clot formation (time to initial clot formation R)” value is listed as “direct relationship to bivalirudin dosing”. In addition, the “rate of clot formation α, clot strength MA and lysis LY30” value (tracings before and after in vivo administration, FIGS. 14a) is listed as “within expected norms”.
